Data as given in PMC11338949, “E41K mutation activates Bruton’s tyrosine kinase by stabilizing an inositol hexakisphosphate-dependent invisible dimer” (The Journal of Biological Chemistry, 2024).
Where two headings read alike, the source gives them in different places.

Legend:
PH-TH^E41K [1] = molecular target: T1, PH-TH^E41K (Bos taurus, UniProt Q3ZC95, E41K); experiment: Size-exclusion chromatography of PH-TH domain with ligand
T1 construct: amino acid residue number 4–170; His-SUMO (N, cleaved yes); made in house; host or cells: E. coli BL21-DE3
Method: Size-exclusion chromatography of various constructs of the PH-TH domain was performed using the Superdex-200 10/300 Gl column. For the apo PH-TH domain, the column was equilibrated with running buffer (25 mM Tris-Cl, 100 mM NaCl, 1 mM DTT, pH 7.2), and 500 μl of 75 μM protein was loaded into the column, at a flow rate of 0.3 ml/min and at 8 °C. The elution profile was recorded, and the retention time of the protein was calculated. For the ligand-bound samples, the protein was mixed with ligand at a protein-to-ligand ratio of 1:4, and incubated at 4 °C for 15 min before loading into the size-exclusion column. Before loading the sample, the column was pre-equilibrated with a running buffer containing the ligand.

[2] = molecular target: T2, PH-TH^E41K (isolated PH-TH domain of BTK, E41K mutant) (Bos taurus, UniProt Q3ZC95, E41K); experiment: Isothermal titration calorimetry, ligand binding to isolated PH-TH domain E41K mutant; conditions: ITC
T2 construct: amino acid residue number 4–170; His-SUMO (N, cleaved yes); made in house; host or cells: E. coli BL21-DE3
Method: (§1) The isothermal titration calorimetry experiments were performed using MicroCal ITC (GE Healthcare) and MicroCal PEAQ-ITC (Malvern). The PH-TH domain was buffer exchanged to 20 mM HEPES, 150 mM NaCl, pH 7.5. During the titration, 25 μM protein in the cell was titrated with a ligand at the protein-to-ligand ratio of 1: 5.5. All ITC titrations were performed at 20 °C. The initial injection of 0.5 μl was excluded from the data analysis. During the titration, 3 μl of ligand was injected in 13 steps, and each injection step was separated by 180 s. The protein solution was stirred at 300 rpm during the titration.

PH-TH^E41K [3] = molecular target: T1, PH-TH^E41K; experiment: Dynamic light scattering of PH-TH domain with IP6; conditions: in the presence of IP6
Method: (§2) The Dynamic Light Scattering experiments were conducted using Malvern Zetasizer DLS Detectors using 1.5 ml plastic cuvettes. The samples were prepared in a buffer containing 25 mM Tris-Cl, 100 mM NaCl, 1 mM DTT, and pH 7.2. The experiment included three measurements of ten runs each. The theoretical calculations of the hydrodynamic radius of the proteins were performed using Hydropro ([51]).

[4] = molecular target: T3, wild-type PH-TH domain of BTK (Bos taurus, UniProt Q3ZC95); experiment: Dynamic light scattering of PH-TH domain with IP6; conditions: IP6 bound PH-TH domain
T3 construct: amino acid residue number 4–170; His-SUMO (N, cleaved yes); made in house; host or cells: E. coli BL21-DE3
Method: as §2

BTK PH-TH E41K/R28H = molecular target: T4, BTK PH-TH E41K/R28H (Bos taurus, UniProt Q3ZC95, E41K/R28H); experiment: Isothermal titration calorimetry, IP6 binding to PH-TH E41K/R28H; conditions: ITC
T4 construct: amino acid residue number 4–170; His-SUMO (N, cleaved yes); made in house; host or cells: E. coli BL21-DE3
Method: as §1, with “analysis.” for “analysis. During the titration, 3 μl of ligand was injected in 13 steps, and each injection step was separated by 180 s. The protein solution was stirred at 300 rpm during the titration.”

BTK PH-TH E41K/R49S = molecular target: T5, BTK PH-TH E41K/R49S (Bos taurus, UniProt Q3ZC95, E41K/R49S); experiment: Isothermal titration calorimetry, IP6 binding to PH-TH E41K/R49S; conditions: ITC
T5 construct: amino acid residue number 4–170; His-SUMO (N, cleaved yes); made in house; host or cells: E. coli BL21-DE3
Method: as §1, with “analysis.” for “analysis. During the titration, 3 μl of ligand was injected in 13 steps, and each injection step was separated by 180 s. The protein solution was stirred at 300 rpm during the titration.”

BTK wild-type = BTK wild-type (Mus musculus, UniProt P35991); experiment: Immunofluorescence of Y551 phosphorylation in transiently transfected CHO cells; conditions: 500 μM IP6 for 1 h
Method: (§3) The IP6-mediated activation of BTK was determined by immunofluorescence and immunoblot in Chinese Hamster Ovary (CHO) cell line transiently transfected with BTK-mCherry cloned in pCDNA. […] Before activation, transfected cells were serum-starved for 6 h in opti-MEM, followed by incubation with 500 μM IP6 for 1 h in opti-MEM. For Immunoblot, cells were washed with ice-cold PBS and then incubated in RIPA buffer [10 mM Tris-Cl (pH 8.0), 140 mM NaCl, 1 mM EDTA, 0.1% SDS, and 1% Triton X-100] containing protease and phosphatase inhibitors (2 mM Benzamidine, 1 mM PMSF and 1 mM Sodium orthovanadate) for 10 min. […]
(§4) All images were acquired with the Leica SP8 confocal platform using an oil immersion HC PL APO CS2 63 × objective (NA 1.4) at 3.0X digital zoom. […] The level of BTK on the membrane or cytoplasm was determined from the intensity of mCherry measured at λex = 552 nm and λem = 576 to 651 nm, respectively. The Y551 phosphorylation was determined from the intensity of FITC tagged to the secondary antibody and measured at λex = 488 nm and λem = 505 to 531 nm. […] The intensity of mCherry or FITC at the membrane was determined by subtracting the respective intensities of ROI2 from ROI1. Whereas cytoplasmic intensity of mCherry or FITC was determined by subtracting the respective intensities of ROI3 from ROI2. […]

BTK^E41K = molecular target: T6, BTK^E41K (Mus musculus, UniProt P35991, E41K); experiment: TIRF microscopy of membrane-bound BTK-mCherry in live CHO cells after IP6 stimulation; assay type: cell-based, Chinese Hamster
T6 construct: expressed in transfected cells; host or cells: CHO cells, transient transfection with pCDNA BTK-mCherry
Method: For Total internal reflection fluorescence (TIRF) microscopy, CHO cells were seeded in a glass bottom dish and transfected with 500 ng DNA. After 16 h of post-transfection, cells were serum starved by incubating in Opti-MEM serum-free media for 6 h. The images of lived CHO cells were recorded for 10 min before and after IP6 treatment. The TIRF images were acquired on a Nikon Eclipse Ti2 inverted microscope equipped with a Nikon 100 × 1.49 numerical aperture oil-immersion TIRF objective, a TIRF illuminator, a Perfect Focus system (PFS), and a motorized stage. The critical angle and the refractive index were set to 63° and 1.515, respectively ([53]). The samples were excited at 561 nm using an LU-N4 laser unit (Nikon, Tokyo, Japan) with solid-state lasers. Image acquisition was done using the Nikon NIS-Elements software. Live cell images were acquired at 1-min intervals for 10 min using an EMCCD camera, with an exposure time of 200 ms. The images were processed and analyzed using Fiji. Out-of-focus fluorescence in the acquired images is removed by deconvolution ([54]). […] The fluorescence intensity of each frame was quantified using “create spectrum jru V1” routine of Fiji. The half-life of fluorescence intensity at the plasma membrane was determined by fitting the fluorescence decay at indicated time points to a first-order kinetic equation using GraphPad Prism version 9.5.1.

BTK^E41K/R28H = BTK^E41K/R28H (Mus musculus, UniProt P35991, E41K/R28H); experiment: Immunofluorescence of Y551 phosphorylation in transiently transfected CHO cells; conditions: 500 μM IP6 for 1 h
Method: as §3, §4

PH-TH^E41K [5] = molecular target: T1, PH-TH^E41K; experiment: Thermal denaturation by circular dichroism spectroscopy; conditions: at the Tm of the apo state, equimolar ligand
Method: The melting temperature of the PH-TH domain was determined from the Circular Dichroism (CD) spectrum recorded at increasing temperatures (20° to 76 °C). For each sample, the CD spectra from 300 to 190 nm were recorded using a Jasco-J1500 spectropolarimeter with a temperature increment of 4 °C. CD spectra were recorded with 5 μM protein in 20 mM Sodium phosphate buffer pH 7.4 and in the absence or in the presence of an equimolar ligand. The measured ellipticity data was converted into molar ellipticity ([39]). The ΔGUnfolding was calculated considering the simplest two-step unfolding model, where a protein exists in a folded (F) and an unfolded (U) state as described previously ([40], [41]). The fraction unfolded [U] protein at a given temperature is:(1) [U]=(θT−θF)/(θU−θF) Where, θF and θU are the molar ellipticity of the fully folded and unfolded state at 218 nm, θT is the molar ellipticity at a given temperature. Considering that at a given temperature, the sum of the unfolded and folded [F] fraction of the protein is 1, the equilibrium constant, KUnfolding is:(2) KUnfolding=[U]/1−[U] […] The ΔΔGunfolding was calculated from the difference between the ΔG of the IP6 bound ΔGholo and ΔGapo state, measured at the Tm of the corresponding apo PH-TH construct.

T4 sequence (Q3ZC95 4-170 R28H/E41K): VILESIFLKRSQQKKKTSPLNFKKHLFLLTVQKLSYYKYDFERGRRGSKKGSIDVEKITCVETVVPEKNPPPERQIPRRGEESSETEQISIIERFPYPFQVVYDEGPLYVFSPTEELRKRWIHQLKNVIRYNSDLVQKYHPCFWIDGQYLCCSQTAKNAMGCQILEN
T1 sequence (Q3ZC95 4-170 E41K): as the sequence (Q3ZC95 4-170 R28H/E41K) above, with H25R counted along it
T2 sequence (Q3ZC95 4-170 E41K): as the sequence (Q3ZC95 4-170 R28H/E41K) above, with H25R counted along it
T5 sequence (Q3ZC95 4-170 E41K/R49S): as the sequence (Q3ZC95 4-170 R28H/E41K) above, with H25R, R46S counted along it
Chain of BTK wild-type (P35991 whole entry): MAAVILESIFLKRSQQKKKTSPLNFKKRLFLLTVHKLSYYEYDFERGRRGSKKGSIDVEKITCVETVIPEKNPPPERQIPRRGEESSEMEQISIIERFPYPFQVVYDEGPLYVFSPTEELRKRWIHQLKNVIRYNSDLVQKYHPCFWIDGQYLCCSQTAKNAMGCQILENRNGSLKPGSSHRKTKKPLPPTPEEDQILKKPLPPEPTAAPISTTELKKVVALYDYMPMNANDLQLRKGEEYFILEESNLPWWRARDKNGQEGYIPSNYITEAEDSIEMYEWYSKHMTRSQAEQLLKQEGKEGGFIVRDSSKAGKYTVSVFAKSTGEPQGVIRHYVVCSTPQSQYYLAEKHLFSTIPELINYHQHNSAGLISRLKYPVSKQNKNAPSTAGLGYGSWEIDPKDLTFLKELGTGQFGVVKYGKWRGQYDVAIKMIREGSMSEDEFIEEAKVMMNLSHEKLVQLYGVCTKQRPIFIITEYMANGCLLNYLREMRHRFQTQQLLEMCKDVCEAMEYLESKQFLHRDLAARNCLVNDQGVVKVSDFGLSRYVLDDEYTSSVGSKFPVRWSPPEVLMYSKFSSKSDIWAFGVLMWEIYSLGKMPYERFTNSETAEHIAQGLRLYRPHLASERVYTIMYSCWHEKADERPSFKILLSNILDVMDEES
Chain of BTK^E41K/R28H (P35991 whole entry R28H/E41K): as the sequence (P35991 whole entry) above, with R28H, E41K counted along it
T3 sequence (Q3ZC95 4-170): as the sequence (Q3ZC95 4-170 R28H/E41K) above, with H25R, K38E counted along it
T6 sequence (P35991 whole entry E41K): as the sequence (P35991 whole entry) above, with E41K counted along it

| Compound | dimerization of PH-TH^E41K (PH-TH^E41K [1]; size-exclusion chromatography, in the presence of ligand) | binding to PH-TH^E41K ([2]; 25 μM protein titrated with 137 μM ligand) | hydrodynamic radius (PH-TH^E41K [3]) [nm] | hydrodynamic radius [4] [nm] | apparent size of migrating species in size-exclusion column (PH-TH^E41K [1]; in the presence of IP6 (300 μM)) [kDa] | ∆H1 (BTK PH-TH E41K/R28H; Table S1) [kcal/mol] | Kd (BTK PH-TH E41K/R28H; Table S1, read-out: Kd1) [µM] | Kd (BTK PH-TH E41K/R28H; one-site fit, weak binding to peripheral lipid binding site, read-out: Kd) [µM] | ∆H1 (BTK PH-TH E41K/R49S; Table S1) [kcal/mol] | Kd (BTK PH-TH E41K/R49S; one-site fit, binding to canonical lipid binding site, read-out: Kd (Kd1)) [µM] | activation (Y551 phosphorylation) of cytosolic fraction of BTK (BTK wild-type) | critical concentration at which BTK^E41K comes out of the membrane (BTK^E41K) [mM] | activation (Y551 phosphorylation) of BTK (BTK^E41K/R28H) | ΔΔGunfolding (ΔGholo – ΔGapo) (PH-TH^E41K [5]) [kcal/mol] | ∆H1 ([2]; Table S1) [kcal/mol] | ∆H2 ([2]; Table S1) [kcal/mol] | Kd ([2]; Table S1, 20 °C, read-out: Kd2) [µM] | Kd ([2]; two-site independent binding model, strong site, 20 °C, read-out: Kd1) [µM] | Kd ([2]; two-site independent binding model, weak site, 20 °C, read-out: Kd2) [µM] |
| --- | --- | --- | --- | --- | --- | --- | --- | --- | --- | --- | --- | --- | --- | --- | --- | --- | --- | --- | --- |
| O=P(O)(O)O[C@@H]1[C@H](O)[C@H](O)[C@@H](OP(=O)(O)O)[C@H](OP(=O)(O)O)[C@H]1O [IP3] | does not dimerize | does not bind | – | – | – | – | – | – | – | – | – | – | – | – | – | – | – | – | – |
| O=P(O)(O)OC1C(OP(=O)(O)O)C(OP(=O)(O)O)C(OP(=O)(O)O)C(OP(=O)(O)O)C1OP(=O)(O)O (stereo not shown) [IP6, inositol hexakisphosphate] | – | – | 3.14 ± 0.48 | 2.18 ± 0.10 | ~44 | -1.562 ± 1.008 | 2.42 ± 0.151 | 2.4 ± 0.15 | -4.16 ± 0.55 | 0.622 ± 0.077 | activates | 0.5 | does not activate | 1.49 ± 0.79 | -4.749 ± 0.159 | -5.098 ± 2.36 | 1.28 ± 0.366 | 0.152 ± 0.018 | 1.3 ± 0.4 |
